Source: US20080009418A1, “Selective Inhibitors” (Alchemia LTD., priority 2004, published 2008)

Key:
[1] = molecular target: T1, Human neurokinin (NK1) (Homo sapiens, UniProt P25103); test: Radioligand binding, human neurokinin NK1 membranes, filtration, [125I]-Substance P; details: compound at 10 μM
T1 construct: purchased Perkin Elmer Biosignal
Summary of the method: (§1)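 Percent inhibition of radioligand binding measured on recombinant human membranes: NK1 with [125I]-Substance P, KOP with [3H]-Diprenorphine. Incubation 1 h at room temperature, then harvest onto 0.3% PEI-soaked filters, cold Tris-HCl pH 7.4 washes and scintillation counting; non-specific binding from reference ligand wells.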

[2] = molecular target: T2, Human melanin-concentrating hormone (MCH1) (Homo sapiens, UniProt Q99705); test: Radioligand binding, human melanin-concentrating hormone MCH1 membranes, FlashPlate, [125I]-S36057; details: compound at 10 μM; for A6: inhibition of radioligand binding, human melanin-concentrating hormone (MCH1): [125I]-S36057
T2 construct: purchased Perkin Elmer Biosignal
T2 sequence (Q99705 whole entry): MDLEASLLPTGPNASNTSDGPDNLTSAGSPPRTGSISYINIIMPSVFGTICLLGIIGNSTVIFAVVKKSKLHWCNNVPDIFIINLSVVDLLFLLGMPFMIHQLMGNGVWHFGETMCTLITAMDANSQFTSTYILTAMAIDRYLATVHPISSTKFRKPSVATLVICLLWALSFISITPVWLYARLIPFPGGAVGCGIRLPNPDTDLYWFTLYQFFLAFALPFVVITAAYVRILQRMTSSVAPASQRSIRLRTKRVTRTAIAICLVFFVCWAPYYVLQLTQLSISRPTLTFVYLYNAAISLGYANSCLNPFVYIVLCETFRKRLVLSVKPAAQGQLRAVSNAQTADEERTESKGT
Summary of the method: (§2)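 Cloned human receptor membranes were coated onto FlashPlate wells and incubated with radioligand and compound (added from a 0.5 mM DMSO daughter plate) for 1 hour at room temperature in the dark. Scintillation counting gave percent inhibition, with DMSO defining total and reference ligand defining non-specific binding.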

[3] = molecular target: T3, Human neuropeptide Y (NPY-Y1) (Homo sapiens, UniProt P25929); test: Radioligand binding, human neuropeptide Y NPY-Y1 membranes, FlashPlate, [125I]-PYY; details: compound at 10 μM
T3 construct: purchased Perkin Elmer Biosignal
T3 sequence (P25929 1-384): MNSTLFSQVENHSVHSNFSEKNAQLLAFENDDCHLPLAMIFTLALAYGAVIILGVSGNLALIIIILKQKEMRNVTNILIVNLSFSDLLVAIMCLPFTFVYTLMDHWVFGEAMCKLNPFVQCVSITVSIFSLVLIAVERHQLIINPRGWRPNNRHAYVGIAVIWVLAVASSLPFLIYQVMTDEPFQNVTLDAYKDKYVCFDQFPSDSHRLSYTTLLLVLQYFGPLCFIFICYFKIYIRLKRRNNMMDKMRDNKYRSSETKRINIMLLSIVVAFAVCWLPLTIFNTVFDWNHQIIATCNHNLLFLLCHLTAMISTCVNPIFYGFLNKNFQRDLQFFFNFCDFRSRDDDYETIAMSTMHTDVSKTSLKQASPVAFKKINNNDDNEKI
Summary of the method: as §2

[4] = molecular target: T4, Human Melanocortin (MC3) (Homo sapiens, UniProt P41968); test: Radioligand binding, human melanocortin MC3 membranes, FlashPlate, [125I]-NDP-αMSH; details: compound at 10 μM
T4 construct: purchased Perkin Elmer Biosignal
T4 sequence (P41968 whole entry): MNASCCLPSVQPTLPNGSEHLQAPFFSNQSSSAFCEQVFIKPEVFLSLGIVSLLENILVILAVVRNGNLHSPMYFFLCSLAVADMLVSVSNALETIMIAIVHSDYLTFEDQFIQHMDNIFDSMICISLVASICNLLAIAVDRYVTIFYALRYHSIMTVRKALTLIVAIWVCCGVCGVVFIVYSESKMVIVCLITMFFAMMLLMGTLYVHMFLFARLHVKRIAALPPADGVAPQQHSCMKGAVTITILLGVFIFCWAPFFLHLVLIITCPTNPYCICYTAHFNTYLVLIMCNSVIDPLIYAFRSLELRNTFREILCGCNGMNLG
Summary of the method: as §2

[5] = molecular target: T5, Human opioid (ORL1) (Homo sapiens, UniProt P41146); test: Radioligand binding, human opioid ORL1 membranes, FlashPlate, [125I]-Nociceptin; details: compound at 10 μM
T5 construct: purchased Perkin Elmer Biosignal
T5 sequence (P41146 whole entry): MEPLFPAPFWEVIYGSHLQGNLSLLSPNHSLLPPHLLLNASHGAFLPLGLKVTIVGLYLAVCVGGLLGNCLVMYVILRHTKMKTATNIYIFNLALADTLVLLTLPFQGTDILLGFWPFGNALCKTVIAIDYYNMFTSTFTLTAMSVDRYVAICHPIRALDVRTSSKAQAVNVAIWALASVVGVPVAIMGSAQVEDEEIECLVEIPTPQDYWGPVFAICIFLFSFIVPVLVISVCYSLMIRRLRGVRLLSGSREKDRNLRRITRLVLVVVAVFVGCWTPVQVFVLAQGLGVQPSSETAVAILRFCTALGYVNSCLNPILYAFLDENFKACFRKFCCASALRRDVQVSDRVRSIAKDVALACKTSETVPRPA
Summary of the method: as §2

[6] = molecular target: T6, Mouse urotensin (mUR2) (Mus musculus, UniProt Q8VIH9); test: Radioligand binding, mouse urotensin mUR2 membranes, FlashPlate, [125I]-Urotensin II; details: compound at 10 μM
T6 construct: purchased Perkin Elmer Biosignal
T6 sequence (Q8VIH9 1-385): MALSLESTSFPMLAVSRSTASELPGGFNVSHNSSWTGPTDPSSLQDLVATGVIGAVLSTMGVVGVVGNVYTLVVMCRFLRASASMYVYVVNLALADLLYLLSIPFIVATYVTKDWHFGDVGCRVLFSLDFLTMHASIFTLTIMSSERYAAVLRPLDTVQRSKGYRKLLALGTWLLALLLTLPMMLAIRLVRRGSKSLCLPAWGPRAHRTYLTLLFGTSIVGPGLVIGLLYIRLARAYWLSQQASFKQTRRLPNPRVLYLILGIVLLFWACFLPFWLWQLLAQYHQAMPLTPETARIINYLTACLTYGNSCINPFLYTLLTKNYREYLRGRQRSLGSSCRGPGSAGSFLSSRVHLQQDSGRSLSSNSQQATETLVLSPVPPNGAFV
Summary of the method: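 Cloned mouse urotensin (mUR2) receptor membranes from Perkin Elmer Biosignal were immobilized in FlashPlate microplates using a proprietary coating. Each well got 19.5 μl buffer, then 0.5 μl of DMSO, reference ligand, or compound. Adding 5 μl of [125I]-Urotensin II, diluted to 5× final concentration in binding buffer, started binding. Plates were sealed with TopSeal-A and incubated 1 hour at room temperature in the dark. Wells were counted for 30 seconds each on a TopCount after a 60-second delay, and percentage inhibition was calculated.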

[7] = molecular target: T7, Human Melanocortin (MC4) (Homo sapiens, UniProt P32245); test: Radioligand binding, human melanocortin MC4 membranes, FlashPlate, [125I]-NDP-αMSH; details: compound at 10 μM
T7 construct: purchased Perkin Elmer Biosignal
T7 sequence (P32245 whole entry): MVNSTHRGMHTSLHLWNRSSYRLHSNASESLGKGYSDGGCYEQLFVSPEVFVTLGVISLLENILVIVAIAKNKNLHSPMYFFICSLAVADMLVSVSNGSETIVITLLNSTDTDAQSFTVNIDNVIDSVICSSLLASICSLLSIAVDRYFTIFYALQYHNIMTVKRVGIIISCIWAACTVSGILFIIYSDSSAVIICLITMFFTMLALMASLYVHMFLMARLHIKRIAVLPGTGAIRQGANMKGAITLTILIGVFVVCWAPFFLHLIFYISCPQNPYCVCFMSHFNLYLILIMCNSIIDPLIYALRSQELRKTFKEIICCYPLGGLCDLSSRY
Summary of the method: as §2

[8] = molecular target: T8, Human μ-opioid (MOP) (Homo sapiens, UniProt P35372); test: Radioligand binding, human μ-opioid (MOP) membranes, FlashPlate, [3H]-Naloxone; details: compound at 10 μM
T8 construct: purchased Perkin Elmer Biosignal
T8 sequence (P35372 whole entry): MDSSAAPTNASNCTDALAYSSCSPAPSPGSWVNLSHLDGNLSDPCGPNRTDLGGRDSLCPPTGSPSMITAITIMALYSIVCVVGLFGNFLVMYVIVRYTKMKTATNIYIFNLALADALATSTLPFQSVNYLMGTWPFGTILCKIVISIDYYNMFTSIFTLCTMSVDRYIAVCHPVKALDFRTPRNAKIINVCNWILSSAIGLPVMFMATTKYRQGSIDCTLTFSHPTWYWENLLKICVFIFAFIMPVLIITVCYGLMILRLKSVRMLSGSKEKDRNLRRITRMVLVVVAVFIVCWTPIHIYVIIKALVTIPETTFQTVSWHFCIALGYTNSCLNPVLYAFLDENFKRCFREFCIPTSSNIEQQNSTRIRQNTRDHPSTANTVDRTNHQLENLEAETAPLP
Summary of the method: as §2

[9] = molecular target: T9, Human δ-opioid (DOP) (Homo sapiens, UniProt P41143); test: Radioligand binding, human δ-opioid (DOP) membranes, FlashPlate, [3H]-Bremazocine; details: compound at 10 μM
T9 construct: purchased Perkin Elmer Biosignal
T9 sequence (P41143 whole entry): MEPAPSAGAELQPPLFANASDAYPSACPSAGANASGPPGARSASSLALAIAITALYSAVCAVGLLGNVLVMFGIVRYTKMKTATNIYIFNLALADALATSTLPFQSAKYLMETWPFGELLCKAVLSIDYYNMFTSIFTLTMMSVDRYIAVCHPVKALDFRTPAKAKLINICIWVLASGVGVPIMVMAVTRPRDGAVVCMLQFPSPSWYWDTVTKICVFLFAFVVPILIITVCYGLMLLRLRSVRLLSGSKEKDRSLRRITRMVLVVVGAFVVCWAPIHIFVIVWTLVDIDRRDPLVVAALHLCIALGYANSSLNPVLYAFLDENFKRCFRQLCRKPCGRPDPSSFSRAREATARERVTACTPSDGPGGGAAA
Summary of the method: as §2

[10] = molecular target: T10, Human κ-Opioid (KOP) (Homo sapiens, UniProt P41145); test: Radioligand binding, human κ-opioid (KOP) membranes, filtration, [3H]-Diprenorphine; details: compound at 10 μM
T10 construct: purchased Perkin Elmer Biosignal
T10 sequence (P41145 whole entry): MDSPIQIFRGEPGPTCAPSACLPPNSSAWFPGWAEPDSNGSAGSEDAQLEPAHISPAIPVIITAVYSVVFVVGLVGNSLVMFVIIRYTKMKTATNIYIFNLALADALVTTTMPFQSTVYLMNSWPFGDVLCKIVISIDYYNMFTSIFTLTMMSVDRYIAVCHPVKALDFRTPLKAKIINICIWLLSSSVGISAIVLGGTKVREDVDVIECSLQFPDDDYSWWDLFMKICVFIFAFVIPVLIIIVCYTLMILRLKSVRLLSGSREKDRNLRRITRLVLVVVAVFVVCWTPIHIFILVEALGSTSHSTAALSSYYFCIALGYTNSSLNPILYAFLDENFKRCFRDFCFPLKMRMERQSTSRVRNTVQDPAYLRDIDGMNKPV
Summary of the method: as §1

[11] = molecular target: T11, Human melanocortin (MC5) (Homo sapiens, UniProt P33032); test: Radioligand binding, human melanocortin MC5 membranes, FlashPlate, [125I]-NDP-αMSH; details: compound at 10 μM
T11 construct: purchased Perkin Elmer Biosignal
T11 sequence (P33032 whole entry): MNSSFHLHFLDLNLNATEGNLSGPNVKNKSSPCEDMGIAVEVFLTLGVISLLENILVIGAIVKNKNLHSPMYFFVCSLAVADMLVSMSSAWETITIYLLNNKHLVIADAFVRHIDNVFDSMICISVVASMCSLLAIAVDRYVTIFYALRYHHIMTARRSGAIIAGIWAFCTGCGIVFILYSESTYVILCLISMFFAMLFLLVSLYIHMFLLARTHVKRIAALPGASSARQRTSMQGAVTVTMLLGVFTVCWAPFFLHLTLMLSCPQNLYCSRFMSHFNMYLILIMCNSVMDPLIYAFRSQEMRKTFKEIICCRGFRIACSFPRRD
Summary of the method: as §2

T1 sequence (P25103 whole entry): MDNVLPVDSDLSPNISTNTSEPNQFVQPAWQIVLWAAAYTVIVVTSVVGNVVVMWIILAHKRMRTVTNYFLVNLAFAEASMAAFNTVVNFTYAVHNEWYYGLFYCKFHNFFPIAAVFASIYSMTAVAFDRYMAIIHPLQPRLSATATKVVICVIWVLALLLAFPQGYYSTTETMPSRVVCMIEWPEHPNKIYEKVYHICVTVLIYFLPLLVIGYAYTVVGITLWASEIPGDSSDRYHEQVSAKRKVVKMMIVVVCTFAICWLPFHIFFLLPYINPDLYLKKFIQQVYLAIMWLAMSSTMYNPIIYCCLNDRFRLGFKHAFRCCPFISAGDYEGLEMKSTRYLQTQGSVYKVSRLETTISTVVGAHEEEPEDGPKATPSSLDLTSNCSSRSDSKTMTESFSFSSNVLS

Compound	A8: inhibition of radioligand binding, human neurokinin (NK1) ([1]; [125I]-Substance P)	A6: inhibition of radioligand binding, human melanin-concentrating hormone (MCH1) [2]	A9: inhibition of radioligand binding, human neuropeptide Y (NPY-Y1) ([3]; [125I]-PYY)	A11: inhibition of radioligand binding, mouse urotensin (mUR2) ([6]; [125I]-Urotensin II)	A4: inhibition of radioligand binding, human melanocortin (MC4) ([7]; [125I]-NDP-αMSH)	A1: inhibition of radioligand binding, human δ-opioid (DOP) ([9]; [3H]-Bremazocine)	A2: inhibition of radioligand binding, human κ-opioid (KOP) ([10]; [3H]-Diprenorphine)	A5: inhibition of radioligand binding, human melanocortin (MC5) ([11]; [125I]-NDP-αMSH)	A3: inhibition of radioligand binding, human melanocortin (MC3) ([4]; [125I]-NDP-αMSH)	A10: inhibition of radioligand binding, human opioid (ORL1) ([5]; [125I]-Nociceptin)	A7: inhibition of radioligand binding, human μ-opioid (MOP) ([8]; [3H]-Naloxone)	further results
COCC1OC(OCc2ccc(Cl)cc2)C(NC(=O)CCCN)C(OCc2ccc(Cl)cc2)C1O (stereo not shown) [compound 203]												A8: inhibition of radioligand binding ([1]; [125I]-Substance P, filtration): + (“+” indicates greater than 50% inhibition at 10 μM); A6: inhibition of radioligand binding ([2]; [125I]-S36057, FlashPlate): − (“−” indicates less than 50% inhibition at 10 μM); A9: inhibition of radioligand binding ([3]; [125I]-PYY, FlashPlate): − (“−” indicates less than 50% inhibition at 10 μM); A3: inhibition of radioligand binding ([4]; [125I]-NDP-αMSH, FlashPlate): − (“−” indicates less than 50% inhibition at 10 μM); A10: inhibition of radioligand binding ([5]; [125I]-Nociceptin, FlashPlate): − (“−” indicates less than 50% inhibition at 10 μM); A11: inhibition of radioligand binding ([6]; [125I]-Urotensin II, FlashPlate): − (“−” indicates less than 50% inhibition at 10 μM); A4: inhibition of radioligand binding ([7]; [125I]-NDP-αMSH, FlashPlate): − (“−” indicates less than 50% inhibition at 10 μM); A7: inhibition of radioligand binding ([8]; [3H]-Naloxone, FlashPlate): − (“−” indicates less than 50% inhibition at 10 μM); A1: inhibition of radioligand binding ([9]; [3H]-Bremazocine, FlashPlate): − (“−” indicates less than 50% inhibition at 10 μM); A2: inhibition of radioligand binding ([10]; [3H]-Diprenorphine, filtration): − (“−” indicates less than 50% inhibition at 10 μM); A5: inhibition of radioligand binding ([11]; [125I]-NDP-αMSH, FlashPlate): + (“+” indicates greater than 50% inhibition at 10 μM)
N=C(N)NCC(=O)NC1C(OCc2ccc(Cl)cc2)OC(COCc2ccccc2)C(O)C1OCc1ccc(Cl)cc1 (single isomer, unassigned) [compound 509]	+ (“+” indicates greater than 50% inhibition at 10 μM)	+ (“+” indicates greater than 50% inhibition at 10 μM)	− (“−” indicates less than 50% inhibition at 10 μM)	− (“−” indicates less than 50% inhibition at 10 μM)	+ (“+” indicates greater than 50% inhibition at 10 μM)	− (“−” indicates less than 50% inhibition at 10 μM)	− (“−” indicates less than 50% inhibition at 10 μM)	+ (“+” indicates greater than 50% inhibition at 10 μM)				A3: inhibition of radioligand binding, human melanocortin (MC3) ([4]; [125I]-NDP-αMSH, 10 µM): − (“−” indicates less than 50% inhibition at 10 μM); A10: inhibition of radioligand binding, human opioid (ORL1) ([5]; [125I]-Nociceptin, 10 µM): − (“−” indicates less than 50% inhibition at 10 μM); A7: inhibition of radioligand binding, human μ-opioid (MOP) ([8]; [3H]-Naloxone, 10 µM): + (“+” indicates greater than 50% inhibition at 10 μM)
COC[C@H]1OC(OCc2ccc(-c3ccccc3)cc2)[C@H](NC(=O)CCCNC(=N)N)[C@@H](OCc2ccc3ccccc3c2)[C@@H]1O (stereo partly shown) [compound 6]												A8 radioligand binding inhibition ([1]; human neurokinin NK1 membranes): + (“+” indicates greater than 50% inhibition at 10 μM); A6 radioligand binding inhibition ([2]; human MCH1 membranes): + (“+” indicates greater than 50% inhibition at 10 μM); A9 radioligand binding inhibition ([3]; human NPY-Y1 membranes): − (“−” indicates less than 50% inhibition at 10 μM); A3 radioligand binding inhibition ([4]; human melanocortin MC3 membranes): − (“−” indicates less than 50% inhibition at 10 μM); A10 radioligand binding inhibition ([5]; human ORL1 membranes): − (“−” indicates less than 50% inhibition at 10 μM); A11 radioligand binding inhibition ([6]; mouse urotensin mUR2 membranes): − (“−” indicates less than 50% inhibition at 10 μM); A4 radioligand binding inhibition ([7]; human melanocortin MC4 membranes): − (“−” indicates less than 50% inhibition at 10 μM); A7 radioligand binding inhibition ([8]; human μ-opioid (MOP) membranes): + (“+” indicates greater than 50% inhibition at 10 μM); A1 radioligand binding inhibition ([9]; human δ-opioid (DOP) membranes): − (“−” indicates less than 50% inhibition at 10 μM); A2 radioligand binding inhibition ([10]; human κ-opioid (KOP) membranes): + (“+” indicates greater than 50% inhibition at 10 μM); A5 radioligand binding inhibition ([11]; human melanocortin MC5 membranes): + (“+” indicates greater than 50% inhibition at 10 μM)
CSC1O[C@H](COCc2ccccc2)[C@@H](O)[C@@H](OCc2ccc(-c3ccccc3)cc2)[C@H]1NC(=O)CCN (stereo partly shown) [compound 285]	+ (“+” indicates greater than 50% inhibition at 10 μM)	− (“−” indicates less than 50% inhibition at 10 μM)	− (“−” indicates less than 50% inhibition at 10 μM)	− (“−” indicates less than 50% inhibition at 10 μM)	− (“−” indicates less than 50% inhibition at 10 μM)	− (“−” indicates less than 50% inhibition at 10 μM)	− (“−” indicates less than 50% inhibition at 10 μM)	− (“−” indicates less than 50% inhibition at 10 μM)	− (“−” indicates less than 50% inhibition at 10 μM)	− (“−” indicates less than 50% inhibition at 10 μM)	− (“−” indicates less than 50% inhibition at 10 μM)	
N=C(N)NCC(=O)N[C@H]1C(OCc2ccc(Cl)cc2)O[C@H](COCc2ccccc2)[C@@H](O)[C@@H]1OCc1ccc2ccccc2c1 (stereo partly shown) [compound 514]	+ (“+” indicates greater than 50% inhibition at 10 μM)	+ (“+” indicates greater than 50% inhibition at 10 μM)	+ (“+” indicates greater than 50% inhibition at 10 μM)	− (“−” indicates less than 50% inhibition at 10 μM)	+ (“+” indicates greater than 50% inhibition at 10 μM)	− (“−” indicates less than 50% inhibition at 10 μM)	− (“−” indicates less than 50% inhibition at 10 μM)	+ (“+” indicates greater than 50% inhibition at 10 μM)	+ (“+” indicates greater than 50% inhibition at 10 μM)	+ (“+” indicates greater than 50% inhibition at 10 μM)	− (“−” indicates less than 50% inhibition at 10 μM)	
